Experiment [1] has as its system LoVo cells. The experiment can be described thus: MTT based cell viability assay on LoVo cells. The following applies: Homo sapiens, LoVo, 72 h, 3 d, read-out: IC50, growth inhibition of LoVo cells. Put shortly:
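Inhibition of LoVo proliferation was derived as IC50 from a sigmoidal dose-response fit of cell survival. Readout was MTT (0.5 mg/mL, 4 h) with absorbance at 552/630/690 nm, after 3-day treatment at 37 °C. Eight-point series from 10 μM to 0.01 μM, DMSO control, 1% DMSO final.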

The target of experiment [2] is Wee1 (h) (Homo sapiens, UniProt P30291). Description: Wee1 kinase (h) detection method, [γ-33P]-ATP filter assay. Format: biochemical.
Wee1 (h), sequence (P30291 whole entry): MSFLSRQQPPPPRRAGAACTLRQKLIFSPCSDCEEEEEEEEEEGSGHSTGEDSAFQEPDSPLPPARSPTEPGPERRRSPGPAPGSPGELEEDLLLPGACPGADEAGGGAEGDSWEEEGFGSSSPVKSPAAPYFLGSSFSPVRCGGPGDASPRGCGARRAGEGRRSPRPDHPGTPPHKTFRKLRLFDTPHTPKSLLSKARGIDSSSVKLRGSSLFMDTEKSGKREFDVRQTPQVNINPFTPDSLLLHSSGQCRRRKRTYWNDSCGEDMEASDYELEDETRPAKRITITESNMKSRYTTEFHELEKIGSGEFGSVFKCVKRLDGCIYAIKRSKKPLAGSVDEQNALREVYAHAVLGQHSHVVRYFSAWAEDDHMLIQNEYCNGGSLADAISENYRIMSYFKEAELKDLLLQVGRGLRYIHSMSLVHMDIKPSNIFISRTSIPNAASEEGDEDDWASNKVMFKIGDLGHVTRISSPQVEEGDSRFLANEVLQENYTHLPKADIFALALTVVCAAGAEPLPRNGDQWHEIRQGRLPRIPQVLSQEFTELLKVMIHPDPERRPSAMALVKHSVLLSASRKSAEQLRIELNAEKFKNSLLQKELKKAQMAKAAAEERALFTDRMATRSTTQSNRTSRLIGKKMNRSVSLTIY
Experiment [3] has as its system NCI-H1299 cells. Description: MTT based cell viability assay on NCI-H1299 cells. The following applies: Homo sapiens, read-out: IC50, growth inhibition of NCI-H1299 cells. The method, boiled down: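 Viability read-out was MTT reduction (0.5 mg/mL, 4 h, absorbance 552/630/690 nm) after 3-day compound exposure at 37 °C of NCI-H1299 cells seeded at 1000 per well. Dilutions spanned 10 μM–0.01 μM in DMSO, final DMSO 1‰. Survival-versus-concentration curves were fitted sigmoidally to give IC50.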

Structures are written as SMILES. Where two headings read alike, the source gives them in different places.

Regarding `Cc1cc(Nc2ncc3c(n2)N2CCN=C2N(c2c(F)cccc2Cl)C3=O)cc(C)c1N1CCN(C)CC1` [Example 56, 6-(2-Chloro-6-fluorophenyl)-2-((3,5-dimethyl-4-(4-methylpiperazin-1-yl)phenyl)amino)-8,9-dihydroimidazo[1,2-a]pyrimido[5,4-e]pyrimidin-5(6H)-one], the IC50 – broadly, the midpoint of a concentration-inhibition curve – came out at 47 nM in experiment [1] and 318 nM in experiment [3] (NCI-H1299, NCI-H1299 cells). Moreover, the “Inh. (%) of Wee1 kinase enzyme activity” value in experiment [2] (C 0.01 μm compound) turned out to be 14%; in experiment [2] (C 0.1 μm compound), 80%; in experiment [2] (C 1 μm compound) it was 90%.

In the case of `CN1CCN(c2ccc(Nc3ncc4c(n3)N3CCN=C3N(c3c(F)cccc3Cl)C4=O)cn2)CC1` [Example 57, 6-(2-Chloro-6-fluorophenyl)-2-((6-(4-methylpiperazin-1-yl)pyridin-3-yl)amino)-8,9-dihydroimidazo[1,2-a]pyrimido[5,4-e]pyrimidin-5(6H)-one], the half-inhibitory concentration (IC50) in experiment [1] is 13600 nM; in experiment [3] (NCI-H1299 cells) it was more than 10000 nM. Also, the “Inh. (%) of Wee1 kinase enzyme activity” value in experiment [2] (C 0.01 μm compound) is reported as 36%; in experiment [2] (C 0.1 μm compound), 80%; in experiment [2] (C 1 μm compound) it was 89%.

Consider `CC(C)N1Cc2cc(Nc3ncc4c(n3)N3CCN=C3N(c3c(F)cccc3Cl)C4=O)ccc2C2(CC2)C1` [Example 58, 6-(2-Chloro-6-fluorophenyl)-2-((2′-isopropyl-2′,3′-dihydro-1′H-spiro[cyclopropane-1,4′-isoquinolin]-7′-yl)amino)-8,9-dihydroimidazo[1,2-a]pyrimido[5,4-e]pyrimidin-5(6H)-one], for which the IC50 in experiment [1] was 90 nM; in experiment [3] (NCI-H1299 cells) it was 426 nM. Further, the “Inh. (%) of Wee1 kinase enzyme activity” value in experiment [2] (C 0.01 μm compound) amounted to 46%; in experiment [2] (C 0.1 μm compound) it was 92%; in experiment [2] (C 1 μm compound) it was 100%.

In the case of `CN1CCn2nc(Nc3ncc4c(n3)N3CCN=C3N(c3c(F)cccc3Cl)C4=O)cc2C1` [Example 59, 6-(2-Chloro-6-fluorophenyl)-2-((5-methyl-4,5,6,7-tetrahydropyrazolo[1,5-a]pyrazin-2-yl)amino)-8,9-dihydroimidazo[1,2-a]pyrimido[5,4-e]pyrimidin-5(6H)-one], the results for the half-inhibitory concentration (IC50) in experiment [1] and in experiment [3] (NCI-H1299 cells) were more than 100000 nM and more than 10000 nM, respectively. Further, the “Inh. (%) of Wee1 kinase enzyme activity” value in experiment [2] (C 1 μm compound) stood at 49%.

Regarding `Cc1cc(Nc2ncc3c(n2)N2CCN=C2N(c2c(F)cccc2F)C3=O)ccc1N1CCN(C)CC1` [Example 60, 6-(2,6-Difluorophenyl)-2-((3-methyl-4-(4-methylpiperazin-1-yl)phenyl)amino)-8,9-dihydroimidazo[1,2-a]pyrimido[5,4-e]pyrimidin-5(6H)-one], the IC50 in experiment [1] came to 158 nM; in experiment [3] (NCI-H1299 cells), 992 nM. The “Inh. (%) of Wee1 kinase enzyme activity” value in experiment [2] (C 0.01 μm compound) came to 15%; in experiment [2] (C 0.1 μm compound) it was 71%; in experiment [2] (C 1 μm compound), 91%.

As to `Cc1cc(Nc2ncc3c(n2)N2CCN=C2N(c2c(F)cccc2C(F)(F)F)C3=O)ccc1N1CCN(C)CC1` [Example 61, 6-(2-Fluoro-6-(trifluoromethyl)phenyl)-2-((3-methyl-4-(4-methylpiperazin-1-yl)phenyl)amino)-8,9-dihydroimidazo[1,2-a]pyrimido[5,4-e]pyrimidin-5(6H)-one], the values for the IC50 in experiment [1] and in experiment [3] (NCI-H1299 cells) were 757 nM and 1230 nM, respectively. For the same compound, the “Inh. (%) of Wee1 kinase enzyme activity” value in experiment [2] (C 1 μm compound) was 82%.

Turning to `Cc1cc(Nc2ncc3c(n2)N2CCN=C2N(c2c(C)cccc2F)C3=O)ccc1N1CCN(C)CC1` [Example 62, 6-(2-Fluoro-6-methylphenyl)-2-((3-methyl-4-(4-methylpiperazin-1-yl)phenyl)amino)-8,9-dihydroimidazo[1,2-a]pyrimido[5,4-e]pyrimidin-5(6H)-one], the half-inhibitory concentration (IC50) is 194 nM in experiment [1] and 925 nM in experiment [3] (NCI-H1299 cells). In experiment [2] (C 1 μm compound), the “Inh. (%) of Wee1 kinase enzyme activity” value is listed as 83%.

(Values after patent US11345711B2, “8,9-dihydroimidazo[1,2-a]pyrimido[5,4-e]pyrimidin-5(6H)-ones” (IMPACT THERAPEUTICS (SHANGHAI), INC, priority 2016, dated 2022).)
